Test systems include A498; HCC 2998; HOP-92; HT-29; Hs-578T; M14; MDA-N; MOLT-4; OVCAR-5; RXF 393; SF-295; SK-MEL-5; SNB-75; T47D; TK-10; UACC-62; UO-31; SF-268; SK-MEL-2.
Test in all cases: NCI anticancer screen, dose series, 48 h

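Where inhibition never reached the appropriate level, the endpoint shown equals the highest concentration tested. Otherwise, values were interpolated linearly from a five-concentration, 48-hour dose response in 96-well plates. The concentration for 50% growth inhibition is given as GI50.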 Active and inactive are the calls of the source. Rule as the data show it: active = GI50 up to about 1.1 µM and inactive = higher.

With `C=C1N(S(=O)(=O)c2ccc(C)cc2)C(=O)OCC12CCCC2`, the GI50 in the experiment on A498 was > 100 µM (inactive); in the experiment on HCC 2998, > 100 µM (inactive); with HOP-92 it was > 100 µM (inactive); with HT-29, 54.7 µM (inactive); in the experiment with Hs-578T, 32.5 µM (inactive); with M14, > 100 µM (inactive). In addition, the GI50 in the experiment on MDA-N was > 100 µM (inactive); with MOLT-4 it was 77.4 µM (inactive); in the experiment on OVCAR-5, > 100 µM (inactive); in the experiment with RXF 393, > 100 µM (inactive); with SF-295, > 100 µM (inactive); with SK-MEL-5, 25.4 µM (inactive). In addition, the GI50 in the experiment on SNB-75 was 14.1 µM (inactive); with T47D, 27.2 µM (inactive); in the experiment on TK-10, > 100 µM (inactive); in the experiment with UACC-62 it was 34.6 µM (inactive); in the experiment on UO-31, 84.3 µM (inactive).

In the case of `N#CCCSC(=S)C1CCCC1=N` (centres undefined), the GI50 in the experiment with A498, with HOP-92, with HT-29, in the experiment on Hs-578T, with M14 and with MDA-N was > 100 µM (inactive) in each case. The GI50 in the experiment on MOLT-4 is > 100 µM (inactive); in the experiment on OVCAR-5, > 100 µM (inactive); in the experiment with RXF 393 it was 42.4 µM (inactive); with SF-268, > 100 µM (inactive); in the experiment with SF-295 it was > 100 µM (inactive); with SK-MEL-2, > 100 µM (inactive). The GI50 was > 100 µM (inactive) in the experiment on SK-MEL-5; 3.88 µM (inactive) with SNB-75; 36 µM (inactive) in the experiment with T47D; > 100 µM (inactive) in the experiment on TK-10; > 100 µM (inactive) in the experiment on UACC-62; > 100 µM (inactive) with UO-31.

On to `CCOC(=O)C(C(=O)OCC)C(=S)NC1OC(COC(C)=O)C(OC(C)=O)C(OC(C)=O)C1OC(C)=O` (centres undefined), for which the GI50 with A498, in the experiment with HCC 2998, with HOP-92, in the experiment on HT-29, in the experiment with Hs-578T and in the experiment on M14 was > 100 µM (inactive) in each case. The GI50 in the experiment with MDA-N, in the experiment on MOLT-4, with OVCAR-5, in the experiment with RXF 393, in the experiment on SF-268 and in the experiment with SF-295 was > 100 µM (inactive) throughout. The GI50 in the experiment on SK-MEL-2, in the experiment on SK-MEL-5, with T47D, in the experiment on UACC-62 and in the experiment with UO-31 was > 100 µM (inactive) each time.

Take `Cc1ccc2c(ccc3c[n+]4ccccc4c(C)c32)c1.[O-][Cl+3]([O-])([O-])[O-]`: the GI50 in the experiment with A498 was 13.4 µM (inactive); in the experiment with HCC 2998, 2.77 µM (inactive); in the experiment with HOP-92, 4.1 µM (inactive); in the experiment on HT-29 it was 6.15 µM (inactive); in the experiment with Hs-578T, 3.05 µM (inactive); in the experiment with M14 it was 5.46 µM (inactive). The GI50 is > 100 µM (inactive) in the experiment with MDA-N; 7.91 µM (inactive) in the experiment with MOLT-4; 10.5 µM (inactive) with OVCAR-5; 26.4 µM (inactive) with RXF 393; 1.29 µM (inactive) in the experiment with SF-268; 1.39 µM (inactive) with SF-295. The GI50 in the experiment with SK-MEL-2 was 1.39 µM (inactive); in the experiment on SK-MEL-5, 1.1 µM (active); with T47D, 2.47 µM (inactive); in the experiment on TK-10, 23.4 µM (inactive); in the experiment with UO-31, 20.7 µM (inactive).

Values taken from ChEMBL document CHEMBL1201862, “PubChem BioAssay data set” (2004).
